Experimental data from patent US5455222A, “1-substituted-5-thiomethylthiocyanato-1H-tetrazoles, compositions containing them and their use as antimicrobial and marine antifouling agents” (The Dow Chemical Company, priority 1994, dated 1995).
≈ marks a conversion by molar mass, not a printed value.

Legend:
[1] = system: Enterobacter aerogenes (Ea); test: Minimum inhibitory concentration (MIC), bacteria in nutrient agar; type: cell-based, Enterobacter aerogenes ATCC 13048; details: Klebsiella aerogenes, 48 hours
Procedure: (§1) The minimum inhibitory concentration (MIC) for the compounds listed in Table I is determined for 9 bacteria, using nutrient agar, and 7 yeast and fungi, using malt yeast agar. A one percent solution of the test compound is prepared in a mixture of acetone and water.
(§2) Nutrient agar is prepared at pH 6.8, representing a neutral medium, and at pH 8.2, representing an alkaline medium. The nutrient agars are prepared by adding 23 g of nutrient agar to one liter of deionized water. In addition, the alkaline medium is prepared by adjusting a 0.04M solution of N-[tris-(hydroxymethyl)methyl]glycine buffered deionized water with concentrated sodium hydroxide to a pH of 8.5.
(§3) The test tubes containing the agar are cooled in a water bath until the temperature of the agar is 48° C. Then, an appropriate amount of the one percent solution of the test compound is added (except in the controls where no compound is added) to the respective test tubes so that the final concentrations are 500, 250, 100, 50, 25, 10, 5, 2.5, 1.0 and zero parts per million of the test compound in the agar, thus having a known concentration of test compound dispersed therein. The contents of the test tubes are then transferred to respective petri plates. After drying for 24 hours, the petri plates containing nutrient agar are inoculated with bacteria and those containing malt yeast agar are inoculated with yeast and fungi.
(§4) The inoculation with bacteria is accomplished by using the following procedure. Twenty-four hour-cultures of each of the bacteria are prepared by incubating the respective bacteria in tubes containing nutrient broth for 24 hours at 30° C. in a shaker. Dilutions of each of the 24 hour-cultures are made so that nine separate suspensions (one for each of the nine test bacteria) are made, each containing 10^8 colony forming units (CFU) per mL of suspension of a particular bacteria. Aliquots of 0.3 mL of each of the bacterial suspensions are used to fill the individual wells of Steer's Replicator. For each microbial suspension, 0.3 mL was used to fill three wells (i.e., three wells of 0.3 mL each) so that for the nine different bacteria, 27 wells are filled. The Steer's Replicator is then used to inoculate both the neutral and alkaline pH nutrient agar petri plates.
(§5) The inoculated petri plates are incubated at 30° C. for 48 hours and then read to determine if the test compound which is incorporated into the agar prevented growth of the respective bacteria.
(§6) Table II lists the bacteria, yeast and fungi used in the MIC test described above along with their respective American Type Culture Collection (ATCC) identification numbers.
(§7) In Tables III and IV, the MIC values of the compounds described in Table I as compared to the MIC of a standard commercial preservative (with 1-(3-chloroallyl)-3,5,7-triaza-1-azoniaadamantane chloride as the active agent and referred to in Tables III and IV as "STANDARD I") are set forth for the bacteria organisms and yeast/fungi organisms which are listed in Table II.

[2] = system: Klebsiella pneumoniae (Kp); test: as above; type: cell-based, Klebsiella pneumoniae ATCC 8308; details: 48 hours
Procedure: as §1, §2, §3, §4, §5, §6, §7

[3] = system: Pseudomonas aeruginosa (Pa); test: as above; type: cell-based, Pseudomonas aeruginosa ATCC 10145; details: 48 hours
Procedure: as §1, §2, §3, §4, §5, §6, §7

[4] = system: Staphylococcus aureus (Sa); test: as above; type: cell-based, Staphylococcus aureus ATCC 6538; details: 48 hours
Procedure: as §1, §2, §3, §4, §5, §6, §7

Aspergillus niger (An) = test: Minimum inhibitory concentration (MIC), yeast/fungi in malt yeast agar; type: cell-based, Aspergillus niger ATCC 16404; details: 30° C., 72 hours for fungi
Procedure: as §1
Malt yeast agar is prepared by adding 3 g yeast extract and 45 g malt agar per liter of deionized water. The specific agar is dispensed in 30 mL aliquots into 25×200 mm test tubes, capped and autoclaved for 15 minutes at 115° C.
as §3
The inoculation with the yeast and fungi is accomplished as follows. Cultures of yeast and fungi are incubated for seven days on malt yeast agar at 30° C. These cultures are used to prepare suspensions by the following procedure. A suspension of each organism is prepared by adding 10 mL of sterile saline and 10 microliters of octylphenoxy polyethoxy ethanol to the agar slant of yeast or fungi. The sterile saline/octylphenoxy polyethoxy ethanol solution is then agitated with a sterile swab to suspend the microorganism grown on the slant. Each resulting suspension is diluted into sterile saline (1 part suspension to 9 parts sterile saline). Aliquots of these dilutions are placed in individual wells of Steer's Replicator and petri plates inoculated as previously described. The petri plates are incubated at 30° C. and read after 48 hours for yeast and 72 hours for fungi.
as §6, §7

marine organisms = test: Marine antifouling activity, coated test panels exposed to marine environment; details: scale 10 (completely free of growth) to 0 (completely covered); for Marine Antifouling Rating, 6 Week Test, Bottom Panel / Marine Antifouling Rating, 6 Week Test, Top Panel: 6 weeks; for Marine Antifouling Rating, 6 Week Test, Bottom Panel / Marine Antifouling Rating, 15 Week Test, Bottom Panel: bottom panel (black background); for Marine Antifouling Rating, 6 Week Test, Top Panel / Marine Antifouling Rating, 15 Week Test, Top Panel: top panel (white background); for Marine Antifouling Rating, 15 Week Test, Bottom Panel / Marine Antifouling Rating, 15 Week Test, Top Panel: 15 weeks
Procedure: Test panels are prepared from clear, rigid polyvinyl chloride film that is 0.381×10^-3 m thick and has one textured surface. The test panels are 0.1524 m by 0.1524 m squares that have 0.00635 m holes punched at corners on 0.127 m centers. A 0.102 square template, with a 0.067 m diameter hole at the center, is attached to the center of the textured surface of the test panels.
A candidate marine antifoulant compound (1.0 g) is stirred into a resinous latex binder (9.0 g). A portion of the compound/binder mixture (1.5 g) is added to the center of the test panel and uniformly spread over the circular area inside the template.
Water is added dropwise as needed to properly spread the compound/binder mixture. The template prevents the compound/binder mixture from spreading beyond the uncovered area. […] The template is then removed. The test panel is then allowed to dry for 8 to 12 hours at room temperature.
Two test panels are prepared for each candidate marine antifoulant compound. Two control test panels are also prepared by only treating with the resinous latex binder. One test panel of each candidate marine […] compound is attached over a white background to the topside of an exposure support apparatus. The second test panel is attached over a black background to the underside of the exposure support apparatus. The exposure support apparatus is placed horizontally 0.0254 m under a marine surface with the white background topside facing up.
After being removed from the exposure support apparatus, each test panel is inspected and rated for marine organism growth on both the treated and untreated areas of the test panel. The marine organisms present on the treated and untreated areas are noted. The presence of algae spores and bacterial slime are noted but not included in rating each test panel. The test panels are rated on a scale from 10 (representing completely free of marine organism growth) to 0 (representing completely covered with marine organism growth).
In addition, test panels were prepared using tributyl tin oxide, a known marine antifouling compound.

Row | Compound | MIC ([1]; nutrient agar pH 6.8, 30° C.) [µg/mL] | MIC ([1]; nutrient agar pH 8.2, 30° C.) [µg/mL] | MIC ([2]; nutrient agar pH 6.8, 30° C.) [µg/mL] | MIC ([2]; nutrient agar pH 8.2, 30° C.) [µg/mL] | MIC ([3]; nutrient agar pH 8.2, 30° C.) [µg/mL] | MIC ([4]; nutrient agar pH 6.8, 30° C.) [µg/mL] | MIC ([4]; nutrient agar pH 8.2, 30° C.) [µg/mL] | MIC (Aspergillus niger (An)) [µg/mL] | Marine Antifouling Rating, 6 Week Test, Bottom Panel (marine organisms) | Marine Antifouling Rating, 6 Week Test, Top Panel (marine organisms) | Marine Antifouling Rating, 15 Week Test, Bottom Panel (marine organisms) | Marine Antifouling Rating, 15 Week Test, Top Panel (marine organisms) | MIC ([3]; nutrient agar pH 6.8, 30° C.) [µg/mL]
1 | N#CSCSc1nnnn1-c1cccc(Cl)c1 [II, 1-(3-Chlorophenyl)-5-thiomethylthiocyanato-1H-tetrazole] | 500 (≈ 1760 µM) | 500 (≈ 1760 µM) | 250 (≈ 881 µM) | 250 (≈ 881 µM) | 500 (≈ 1760 µM) | 250 (≈ 881 µM) | 100 (≈ 352 µM) | < 10 | 10 | 9 | 6 | 9 | 
2 | N#CSCSc1nnnn1-c1ccc(Cl)cc1 [III, 1-(4-Chlorophenyl)-5-thiomethylthiocyanato-1H-tetrazole] | 25 (≈ 88.1 µM) | 250 (≈ 881 µM) | 25 (≈ 88.1 µM) | 50 (≈ 176 µM) | 25 (≈ 88.1 µM) | 25 (≈ 88.1 µM) | 50 (≈ 176 µM) | < 1 | 9 | 9 | 1 | 4 | 
3 | Cc1cccc(-n2nnnc2SCSC#N)c1 [VI, 1-(3-Methylphenyl)-5-thiomethylthiocyanato-1H-tetrazole] | 500 (≈ 1900 µM) | 500 (≈ 1900 µM) | 250 (≈ 949 µM) | 100 (≈ 380 µM) | 250 (≈ 949 µM) | 25 (≈ 94.9 µM) | 50 (≈ 190 µM) | 5 (≈ 19 µM) | 10 | 9 | 9 | 8 | 
4 | N#CSCSc1nnnn1C1CCCCC1 [X, 1-(Cyclohexyl)-5-thiomethylthiocyanato-1H-tetrazole] | 500 (≈ 1960 µM) | 500 (≈ 1960 µM) | 250 (≈ 979 µM) | 100 (≈ 392 µM) | 250 (≈ 979 µM) | 25 (≈ 97.9 µM) | 50 (≈ 196 µM) | 5 (≈ 19.6 µM) | 10 | 9 | 8 | 4 | 250 (≈ 979 µM)
